From patent publication US20100145266A1, “METHOD FOR LOADING STRUCTURED SURFACES” (priority 2007, published 2010) come the findings set out here.

Data set [1] in a line: Stability of paclitaxel depending on pH. The format is physicochemical.
Another data set in a line: physchem. On the procedure:
Preferably 1 mg-150 mg, more preferably 10 mg to 90 mg and most preferably 40 mg to 60 mg of paclitaxel are dissolved in one ml of DMSO.

In general, solubility refers to the dissolved amount per volume that the medium holds.

The structures appear in SMILES notation.

`CC(=O)O[C@H]1C(=O)[C@@]2(C)[C@H]([C@H](OC(=O)c3ccccc3)[C@]3(O)C[C@H](OC(=O)[C@H](O)[C@@H](NC(=O)c4ccccc4)c4ccccc4)C(C)=C1C3(C)C)[C@]1(OC(C)=O)CO[C@@H]1C[C@@H]2O` (relative stereo) [paclitaxel, [2aR-[2a,4,4a,6,9(R*,S*),11,12,12a,12b]]-(benzoylamino)-hydroxybenzene propionic acid 6,12b-bis-(acetyloxy)-12-(benzoyloxy)-2a-3,4,4a,5,6,9,10,11,12,12a,12b-dodecahydro-4,11-dihydroxy-4a,8,13,13-tetramethyl-5-oxo-7,11-methano-1H-cyclodeca[3,4]benz[1,2-b]oxet-9-yl ester)]: the “stability at alkaline pH” value in data set [1] (alkaline pH) was “comparatively instable”. In addition, in data set [1] (pH between 3 and 5), the “stability at a pH between 3 and 5” value was “especially stable”. In addition, in the data set “physchem”, the “solubility in anhydrous ethanol” value is listed as “highly soluble”, the “solubility in dimethyl sulfoxide (DMSO)” value is “highly soluble” and the solubility in methanol result is reported as “highly soluble”. The solubility in the data set “physchem” (organic solvent or mixture) is at most 150 mg/mL.
